Experimental data from patent US20250129086A1, “COMPOUND FOR DEGRADING EGFR PROTEIN AND USE THEREOF” (TYK MEDICINES, INC., priority 2021, published 2025).

What was measured:
Format in all cases: cell-based, human
[1] = system: H1975 (EGFR L858R/T790M double mutation); experiment: Cell antiproliferative assay (CTG, 72 h), H1975; conditions: Table 2, H1975 cells
Protocol: (§1) Test Example 1 Cell Antiproliferative Assay
(§2) H1975: with EGFR: L858R/T790M double mutation; PC-9 with EGFR exon 19 deletion, HCC827 with exon 19 deletion mutation. CellCounting-Lite2.0, Trypsin EDTA, 37° C. CO2 incubator, cell counter, EnVision Serial No.1050454. II. Experimental preparation:
(§3) • (A) Trypsin EDTA was used to digest log-phase cells, medium was added to terminate the reaction, and a cell suspension was made by blowing and mixing with a pipette. • (B) Cell concentration was determined using Vi-cell, and a suspension of 15,000-25,000 cells per milliliter was made depending on the purpose of the experiment and the characteristics of the cells. • (C) After the cell suspension was prepared, it was gently mixed and 100 microliters per well was added so that the density of cells to be tested was 1500-2500 per well.
(§4) • (A) About 2 mg of compound was weighed, and the volume of DMSO required was calculated according to the formula: compound mass (mg)*compound purity (%)/compound molecular weight*1000 • (B) The inoculated cell culture plates were incubated in an incubator and the compounds with concentration gradient were added after about 24 hours. • (C)10 Mm of compound stock solution was diluted to […] with medium, and 50 Mm of compound solution was added sequentially to the second column of the deep-well plate, and […] of medium containing 0.5% DMSO was added to the third to eleventh columns. • (D) Gradient dilution: 125 μl of solution was pipetted from the second column and added to the third column, after mixing; another 125 μl of solution was pipetted from the third column and added to the fourth column, and the operation was repeated until the tenth column. • (E)25 μl of compound was pipetted from the deep-well plate into a 96-well culture plate using a multichannel pipette, and each compound was repeated three times on the 96-well plate. A maximum concentration of 10,000 nm with concentration gradient of 1:4 was eventually formed on the 96-well plate.
(§5) • (A)96-well plates were incubated in an incubator for 72 h. The effect of the compounds was observed under an inverted microscope. • (B)25 μl of CTG solution was added to each well, the plate was put on shaker for 10 minutes and the […] of each well was read.
(§6) The cell viability rate (% Cell Viability) was calculated using the following formula: • % Cell Viability=100%×(Lum_Sample-Lum_LC)/(Lum_HC-Lum_LC) • Lum_HC: Cell reading of 0.1% DMSO control • Lum_Sample: Cell reading with compound added • Lum_LC: Reading of Blank media • IC50 values were obtained by curve fitting with GraphPad Prism 8 software.

[2] = system: PC-9 (EGFR exon 19 deletion); experiment: Cell antiproliferative assay (CTG, 72 h), PC-9; conditions: Homo sapiens, PC-9, 72 h, Table 2, PC-9 cells
Protocol: as §1, §2, §3, §4, §5, §6

[3] = system: HCC827 (exon 19 deletion mutation); experiment: Cell antiproliferative assay (CTG, 72 h), HCC827; conditions: Homo sapiens, HCC827, 72 h, Table 2, HCC827 cells
Protocol: as §1, §2, §3, §4, §5, §6

Question: With COc1cc(N2CCN(C(=O)CN3CCC(c4ccc(NC5CCC(=O)NC5=O)cc4)CC3)CC2)ccc1Nc1ncc(C(F)(F)F)c(-c2cn(C)c3ccccc23)n1 (stereo not drawn) [Compound T-135] as the molecule, how does the IC50 ([1]; Homo sapiens, NCI-H1975, 72 h) read?
Answer: 100 to 1000 nM

Question: And the IC50 [2]?
Answer: ≥ 1000 nM

Question: What about the IC50 [3] of the same molecule?
Answer: 100 to 1000 nM

Question: With COc1cc(N2CCN(CCCN3CCC(c4ccc(NC5CCC(=O)NC5=O)cc4)CC3)CC2)ccc1Nc1ncc(Cl)c(Nc2ccccc2C(C)=O)n1 (stereo not drawn) [Compound T-183] as the molecule, how does the IC50 ([1]; Homo sapiens, NCI-H1975, 72 h) read?
Answer: 100 to 1000 nM

Question: With COC(=O)c1ccccc1Nc1nc(Nc2ccc(N3CCN(C(=O)CN4CCC(c5ccc(NC6CCC(=O)NC6=O)cc5)CC4)CC3)cc2OC)ncc1Cl (stereo not drawn) [Compound T-194] as the molecule, how does the IC50 ([1]; Homo sapiens, NCI-H1975, 72 h) read?
Answer: 100 to 1000 nM

Question: With COc1cc(N2CCN(C(=O)CN3CCN(c4ccc5c(c4)C(=O)N(C4CCC(=O)NC4=O)C5=O)CC3)CC2)ccc1Nc1ncc(Cl)c(Nc2ccccc2C(C)=O)n1 (stereo not drawn) [Compound T-201] as the molecule, how does the IC50 ([1]; Homo sapiens, NCI-H1975, 72 h) read?
Answer: 100 to 1000 nM

Question: For COc1cc(N2CCN(C(=O)C3CCN(CC4CCN(c5ccc6c(c5)C(=O)N(C5CCC(=O)NC5=O)C6=O)CC4)CC3)CC2)ccc1Nc1ncc(Cl)c(Nc2ccccc2C(C)=O)n1 (stereo not drawn) [Compound T-204], which IC50 ([1]; Homo sapiens, NCI-H1975, 72 h) is on record?
Answer: 100 to 1000 nM

Question: Which IC50 ([1]; Homo sapiens, NCI-H1975, 72 h) does the source give for COc1nc(N2CCN(C(=O)CN3CCC(c4ccc(NC5CCC(=O)NC5=O)cc4)CC3)CC2)ccc1Nc1ncc(Cl)c(Nc2ccccc2C(C)=O)n1 (stereo not drawn) [Compound T-208] here?
Answer: 100 to 1000 nM

Question: How did the IC50 ([1]; Homo sapiens, NCI-H1975, 72 h) turn out when COc1cc(N2CCN(C(=O)CNc3ccc4c(c3)C(=O)N(C3CCC(=O)NC3=O)C4=O)CC2)ccc1Nc1ncc(Cl)c(Nc2ccccc2C(C)=O)n1 (stereo not drawn) [Compound T-230] was run?
Answer: 100 to 1000 nM

Question: For COc1cc(N2CCN(CC(=O)NCCNc3cccc4c3C(=O)N(C3CCC(=O)NC3=O)C4=O)CC2)ccc1Nc1ncc(Cl)c(Nc2ccccc2C(C)=O)n1 (stereo not drawn) [Compound T-238], which IC50 ([1]; Homo sapiens, NCI-H1975, 72 h) is on record?
Answer: 100 to 1000 nM

Question: How did the IC50 ([1]; Homo sapiens, NCI-H1975, 72 h) turn out when COc1cc(N2CCN(C(=O)CN3CCC(c4ccc5c(cnn5C5CCC(=O)NC5=O)c4)CC3)CC2)ccc1Nc1ncc(Cl)c(Nc2ccccc2)n1 (stereo not drawn) [Compound T-326] was run?
Answer: 100 to 1000 nM

Question: With COC(=O)Nc1ccccc1Nc1nc(Nc2ccc(N3CCN(C(=O)CN4CCC(c5ccc(NC6CCC(=O)NC6=O)cc5)CC4)CC3)cc2OC)ncc1Cl (stereo not drawn) [Compound T-340] as the molecule, how does the IC50 ([1]; Homo sapiens, NCI-H1975, 72 h) read?
Answer: 100 to 1000 nM

Question: How did the IC50 ([1]; Homo sapiens, NCI-H1975, 72 h) turn out when CCc1cc(Nc2ncc(Cl)c(Nc3ccccc3C(=O)NC)n2)c(OC)cc1N1CCN(C(=O)CN2CCC(c3ccc(NC4CCC(=O)NC4=O)cc3)CC2)CC1 (stereo not drawn) [Compound T-361] was run?
Answer: 10 to 100 nM

Question: CCc1cc(Nc2ncc(Br)c(Nc3ccccc3C(=O)NC)n2)c(OC)cc1N1CCN(C(=O)CN2CCC(c3ccc(NC4CCC(=O)NC4=O)cc3)CC2)CC1 (stereo not drawn) [Compound T-362] was tested. Which IC50 ([1]; Homo sapiens, NCI-H1975, 72 h) did it give?
Answer: 10 to 100 nM

Question: CCc1cc(Nc2ncc(C(F)(F)F)c(Nc3ccccc3C(=O)NC)n2)c(OC)cc1N1CCN(C(=O)CN2CCC(c3ccc(NC4CCC(=O)NC4=O)cc3)CC2)CC1 (stereo not drawn) [Compound T-363] was tested. Which IC50 ([1]; Homo sapiens, NCI-H1975, 72 h) did it give?
Answer: 10 to 100 nM

Question: How did the IC50 ([1]; Homo sapiens, NCI-H1975, 72 h) turn out when CNC(=O)c1ccccc1Nc1nc(Nc2cc(C)c(N3CCN(C(=O)CN4CCN(c5ccc(NC6CCC(=O)NC6=O)cc5)CC4)CC3)cc2OC)ncc1Cl (stereo not drawn) [Compound T-364] was run?
Answer: 10 to 100 nM

Question: How did the IC50 ([1]; Homo sapiens, NCI-H1975, 72 h) turn out when CCNC(=O)c1ccccc1Nc1nc(Nc2ccc(N3CCN(C(=O)CN4CCC(c5ccc(NC6CCC(=O)NC6=O)cc5)CC4)CC3)cc2OC)ncc1Br (stereo not drawn) [Compound T-374] was run?
Answer: 10 to 100 nM

Question: How did the IC50 [1] turn out when CCc1cc(Nc2ncc(Cl)c(Nc3ccccc3C(=O)NC)n2)c(OC)cc1N1CCN(C(=O)CN2CCC(c3ccc(NC4CCC(=O)NC4=O)cc3)CC2)CC1 (stereo not drawn) [Compound T-375] was run?
Answer: 10 to 100 nM

Question: For CNC(=O)c1ccccc1Nc1nc(Nc2cc(CC(F)(F)F)c(N3CCN(C(=O)CN4CCC(c5ccc(NC6CCC(=O)NC6=O)cc5)CC4)CC3)cc2OC)ncc1Cl (stereo not drawn) [Compound T-377], which IC50 ([1]; Homo sapiens, NCI-H1975, 72 h) is on record?
Answer: 10 to 100 nM

Question: For CCc1cc(Nc2ncc(Cl)c(Nc3ccccc3C(C)=O)n2)c(OC)cc1N1CCN(C(=O)CN2CCC(c3ccc(NC4CCC(=O)NC4=O)cc3)CC2)CC1 (stereo not drawn) [Compound T-378], which IC50 ([1]; Homo sapiens, NCI-H1975, 72 h) is on record?
Answer: 10 to 100 nM

Question: With CNC(=O)c1ccccc1Nc1nc(Nc2cc(CC(F)(F)F)c(N3CCN(C(=O)CN4CCC(c5ccc(NC6CCC(=O)NC6=O)cc5)CC4)CC3)cc2OC)ncc1Br (stereo not drawn) [Compound T-381] as the molecule, how does the IC50 ([1]; Homo sapiens, NCI-H1975, 72 h) read?
Answer: 10 to 100 nM
